Type in all cases: cell-based
Test [1] relates to ERK. The test is described as follows: Kinase translocation reporter imaging, rsFastLime-based ERK sensor, in NIH/3T3 cells. The text has this:
(§1) The constructs of JNKKTRrsGreenFast-E (JNKKTR is SEQ ID NO: 5), P38KTRDronpa, ERKKTRrsFastLime (ERKKTR is SEQ ID NO: 6) were built based on the original KTRs constructs JNKKTRClover (addgene plasmid 59151; JNKKTR is SEQ ID NO: 5), P38KTRmCerulean3 (addgene plasmid 59155), ERKKTRClover(addgene plasmid 59150; ERKKTR is SEQ ID NO: 6), all gift of Markus W. Covert (Regot S, et al., Cell, (2014); 157(7):1724-34). The newly developed three KTRs were then used along with PKAKTRClover (addgene plasmid […]; PKAKTR is SEQ ID NO: 7) and H2B-TagBFP to report the activities of all four kinases. H2B-TagBFP was used as a nucleus marker. NIH/3T3 cells were imaged on the same microscope and incubator system as the imaging of cell cycle phases. Cell culture media were changed to imaging media (MEM (Gibo) without phenol red with 1% FBS (Gibo)) prior to imaging. The imaging conditions (including exposure time, excitation, and emission) for KTRs were the same as those for imaging cell cycle phases as described previously. […]
(§2) Quantification of KTRs: Kinase activities reported by KTRs including CDK2 reporter and CDK4/6 reporter were quantified following the methods described previously (Regot S, et al., Cell, (2014); 157(7):1724-34). […]

Test [2] has as its system PKA. The test is described as follows: Kinase translocation reporter imaging, PKA KTR-Clover, in NIH/3T3 cells.
Description: as §1, §2

The test system of test [3] is P38. The test is described as follows: Kinase translocation reporter imaging, Dronpa-based P38 sensor, in NIH/3T3 cells.
Description: as §1, §2

Test [4] relates to PKC. As to the kind of experiment: PKC imaging with BlueCKAR in NIH/3T3 cells (seven-signal imaging). The note with it: 100 ng/ml PMA added at t=44 min (after forskolin). The text has this:
(§3) Simultaneous imaging of seven cell activities within single cells: The genes of the single-color KTRs were cloned into the following plasmid: CAG-JNKKTRrsGreenF-E-P2A-ERK KTRrsFastLime-IRES-PKAKTRClover-P2A-P38KTRDropna (JNKKTR is SEQ ID NO: 5 and PKAKTR is SEQ ID NO: 7). The aforementioned plasmid was then used with plasmid CAG-NIR-GECO2G (Qian Y, et al., PLoS Biol., (2020); 18(11):e3000965), plasmid CMV-Pink Flamindo (Harada K, et al., Sci Rep., (2017); 7(1):7351), and plasmid CMV-BlueCKAR (Mehta S, et al., Nat Cell Biol, (2018); 20(10):1215-25) for imaging 7 signals within individual NIH/3T3 cells. Imaging conditions for blue channel, green channel, and red channel were the same as those used in the imaging of cell cycle phases and CDKs activities. An extra channel (excitation: 637/12 nm at 9 mW/mm^2; emission: 664LP, exposure time: 100 ms) was used for imaging NIR-GECO2G. Images and movies were acquired every 2 min. 50 μM forskolin (Millipore Sigma) and 100 ng/ml Phorbol 12-myristate 13-acetate (PMA) (Millipore Sigma) were used to stimulate cells.

The test system of test [5] is Ca^2+. The test is described as follows: Ca2+ imaging with NIR-GECO2G in NIH/3T3 cells (seven-signal imaging). The note with it: 100 ng/ml PMA added at t=44 min (after forskolin).
Description: as §3

Test [6] deals with cAMP. As to the kind of experiment: cAMP imaging with Pink Flamindo in NIH/3T3 cells (seven-signal imaging). The note with it: 100 ng/ml PMA added at t=44 min (after forskolin).
Description: as §3

Test [7] concerns JNK. As to the kind of experiment: Kinase translocation reporter imaging, rsGreenF-E-based JNK sensor, in NIH/3T3 cells.
Description: as §1, §2

[8] abbreviates: seven-signal imaging, 100 ng/ml PMA added at t=44 min (after forskolin).
The mark [9] stands for this setting: four-KTR imaging, 20 ng/ml bFGF2 at t=0 min.

Consider `CCCCCCCCCCCCCC(=O)O[C@@H]1[C@@H](C)[C@@]2(O)[C@@H](C=C(CO)C[C@]3(O)C(=O)C(C)=C[C@@H]23)[C@@H]2C(C)(C)[C@]12OC(C)=O` [PMA, phorbol 12-myristate 13-acetate], for which the ERK response entry in test [1] (setting [8]) is given as “strong responses”. Besides, in test [2] (setting [8]), the PKA response result is given as “strong responses”. Moreover, in test [3] (setting [8]), the P38 response entry is on record as “little to no changes”. For the same molecule, the PKC response result in test [4] is reported as “strong responses”. In addition, the “Ca^2+ response” value in test [5] is on record as “little to no changes”. For the same molecule, the cAMP response entry in test [6] is “strong responses”. Besides, the JNK response result in test [7] (setting [8]) is “strong responses”.

B1: bFGF2: mouse basic fibroblast growth factor 2 (protein, UniProt P15655 10-154, looked up)
Fibroblast growth factor 2: PALPEDGGAAFPPGHFKDPKRLYCKNGGFFLRIHPDGRVDGVREKSDPHVKLQLQAEERGVVSIKGVCANRYLAMKEDGRLLASKCVTEECFFFERLESNNYNTYRSRKYSSWYVALKRTGQYKLGSKTGPGQKAILFLPMSAKS
For the molecule B1, the “ERK KTR signal after stimulation” value in test [1] (setting [9]) is “steadily increased over time”. Moreover, the “PKA KTR signal after stimulation” value in test [2] (setting [9]) is recorded as “Fast onset”. Also, the “P38 KTR signal after stimulation” value in test [3] (setting [9]) was “steadily increased over time”. Also, the “JNK KTR signal after stimulation” value in test [7] (setting [9]) is given as “Fast onset”.

The record behind these values is patent publication US20240287627A1, “TEMPORALLY MULTIPLEXED IMAGING” (MASSACHUSETTS INSTITUTE OF TECHNOLOGY, priority 2023, published 2024).
